Test results from paper PMC9077138, “An investigation on 3-acetyl-7-methoxy-coumarin Schiff bases and their Ru(II) metallates with potent antiproliferative activity and enhanced LDH and NO release” (RSC Advances, 2018).
Read-outs that look alike come from different tables or passages of the source.

Key:
[1] = tested on: S. pneumonie; experiment: In vitro antibacterial assay (zone of inhibition, MIC); format: cell-based, Streptococcus pneumonie; conditions: for Minimum inhibitory concentration (MIC); head: IC50 VALUES / Zone of inhibition: S. pneumonie; for zone of inhibition at 50 µg/mL / zone of inhibition at 100 µg/mL: Streptococcus
Procedure: (§1) The free ligands and their cyclometallated ruthenium(II) carbonyl complexes were screened for their in vitro antimicrobial activity against certain pathogenic bacterial and fungal species at three different concentrations using disc diffusion method.
(§2) Antimicrobial activities of [RuHClCO(PPh3)3], ligands H2L^1–4 and new organometallic Ru(II) complexes (1–4) were evaluated by agar well diffusion method[76] as reported, by taking Staphylococcus aureus, Streptococcus pneumonie, Pseudomonas aeruginosa, Salmonella paratyphi and fungus such as Candida albicans, Trichophyton rubrum, Aspergillus niger, Aspergillus fumigatus and Candida tropicalis. The above said all test organisms were obtained from the MTCC, Chandigarh, India and Microbiological laboratory, Coimbatore, Tamil Nadu, India. The antimicrobial activity of the test compounds was checked with various concentrations (25 μg ml^−1, 50 μg ml^−1 and 100 μg ml^−1) against all the test pathogens. Gentamicin and ketoconazole were used as positive controls to study the antibacterial and antifungal activities respectively. Each experiment was performed in triplicate and the results are represented as average zone of inhibition and minimum inhibitory concentration of all the test pathogens.

[2] = tested on: P. aeruginosa; experiment: as above; format: cell-based, Pseudomonas aeruginosa; conditions: for Minimum inhibitory concentration (MIC); head: IC50 VALUES / Zone of inhibition: P. aeruginosa; for zone of inhibition at 50 µg/mL / zone of inhibition at 100 µg/mL: Pseudomonas aeruginosa
Procedure: as §1, §2

[3] = tested on: S. aureus; experiment: as above; format: cell-based, Staphylococcus aureus; conditions: for Minimum inhibitory concentration (MIC); head: IC50 VALUES / Zone of inhibition: S. aureus; for zone of inhibition at 50 µg/mL / zone of inhibition at 100 µg/mL: Staphylococcus aureus
Procedure: as §1, §2

[4] = tested on: human lung carcinoma cancer cell line A549; experiment: MTT cytotoxicity assay; format: cell-based; conditions: read-out: IC50 values A549
Excerpt: (§3) The DNA/protein binding studies, antioxidant and antimicrobial studies had shown that the ligands and ruthenium(II) complexes studied here have therapeutic potentials and were subjected to study their anticancer activity. A number of coumarin derivatives have shown considerable anticancer activity against a number of cell lines. All the 3-acetyl-7-methoxy-coumarin-4(N)-substituted thiosemicarbazone ligands, metal precursor [RuHClCO(PPh3)3] and their new cyclometallated Ru(II) complexes were assessed for their cytotoxicity with two human derived cell lines namely human lung carcinoma (A549) and human breast cancer cells (MCF-7) by using MTT assay. For comparison purpose, cisplatin was used as a positive control under identical conditions.
(§4) Cytotoxic activity of the compounds was tested with human lung cancer cell lines A549, human breast cancer cell lines MCF-7 and human normal keratinocyte cells (HaCaT) by using MTT assay, which was done according to the earlier literature methods[77] and IC50 values obtained from nonlinear regression using GraphPad Prism 5.[78] The LDH release[79] and NO release[80] assays of the compounds was evaluated by the earlier reported methods.

[5] = tested on: human breast cancer cell line MCF-7; experiment: MTT cytotoxicity assay; format: cell-based; conditions: read-out: IC50 values MCF-7
Excerpt: as §3, §4

[6] = tested on: human normal keratinocyte cells (HaCaT); experiment: MTT cytotoxicity assay; format: cell-based; conditions: 48 h, read-out: IC50 values HaCaT
Procedure: In order to investigate the selectivity of the compounds for cancer cells rather than normal cell lines, the compounds were also screened for their anticancer activity on the human normal keratinocyte cells (HaCaT).
as §4

[7] = tested on: S. paratyphi; experiment: In vitro antibacterial assay (zone of inhibition, MIC); format: cell-based, Salmonella paratyphi; conditions: for zone of inhibition at 50 µg/mL / zone of inhibition at 100 µg/mL: Salmonella enterica
Excerpt: The free ligands and their cyclometallated ruthenium(II) carbonyl complexes were screened for their in vitro antimicrobial activity against certain pathogenic bacterial and fungal species at three different concentrations using disc diffusion method. […] Tested complexes had better antimicrobial activity than the ligands against all pathogens. This may be explained by Tweedy's chelation theory.[61] Coordination of ligands reduce the polarity of the metal ion essentially by partial sharing of its positive charge with the donor groups within the chelate ring system formed during the coordination and leading to the increase in lipophilic nature of the central metal atom, which favours the effective permeation through the lipid layer of microorganism.[61,62] […] When tested against T. rubrum, the activity of the complexes in the order of 3 > 2 > 1 > 4. In antibacterial studies, the complex 3 was effective against S. aureus followed by complex 2, 1 and 4 and in the case of S. pneumonie the activity of the complexes follows the order of 3 > 1 > 4 > 2. […] When tested against S. paratyphi complex 1 stood out as good followed by the complexes 4, 3 and 2 respectively.
as §2

[8] = tested on: C. albicans; experiment: In vitro antifungal assay (zone of inhibition, MIC); format: cell-based, Candida albicans; conditions: for Minimum inhibitory concentration (MIC); head: IC50 VALUES / Zone of inhibition: C. albicans; for zone of inhibition at 50 µg/mL / zone of inhibition at 100 µg/mL: Candida albicans
Procedure: as §1, §2

Structure (SMILES)	Minimum inhibitory concentration (MIC); head: IC50 VALUES [1] [µM]	Zone of inhibition ([1]; 50 µg/ml) [mm]	Zone of inhibition ([1]; 100 µg/ml) [mm]	Minimum inhibitory concentration (MIC); head: IC50 VALUES [2] [µM]	Zone of inhibition ([2]; 50 µg/ml) [mm]	Zone of inhibition ([2]; 100 µg/ml) [mm]	Minimum inhibitory concentration (MIC); head: IC50 VALUES [3] [µM]	Zone of inhibition ([3]; 50 µg/ml) [mm]	Zone of inhibition ([3]; 100 µg/ml) [mm]	IC50 ([4]; MTT, 48 h) [µM]	IC50 ([5]; MTT, 48 h) [µM]	IC50 ([6]; MTT, normal cells) [µM]	Zone of inhibition ([7]; 50 µg/ml) [mm]	Zone of inhibition ([7]; 100 µg/ml) [mm]	Minimum inhibitory concentration (MIC); head: IC50 VALUES [8] [µM]	Zone of inhibition ([8]; 50 µg/ml) [mm]	Zone of inhibition ([8]; 100 µg/ml) [mm]	zone of inhibition at 50 µg/mL [1] [mm]	zone of inhibition at 100 µg/mL [1] [mm]	zone of inhibition at 50 µg/mL [2] [mm]	other results
COc1ccc2[c]3c(c(=O)oc2c1)C(C)=[N+]1N=C(N)[S][Ru-4]31([C]#[O+])([P+](c1ccccc1)(c1ccccc1)c1ccccc1)[P+](c1ccccc1)(c1ccccc1)c1ccccc1 [Complex 1, [Ru(7MAC-tsc)(CO)(PPh3)2]]	15.86 ± 0.07	12.41±0.36	18.51±0.94	16.37 ± 0.19	13.23±0.32	16.66±0.44	16.35 ± 0.21	12.16±0.11	18.09±0.15	2.96 ± 0.07	2.86 ± 0.17	> 40	12.55±0.04	18.95±0.31	15.19 ± 0.15	12.22±0.41	18.91±0.41				
CNC1=N[N+]2=C(C)c3[c](c4ccc(OC)cc4oc3=O)[Ru-4]2([C]#[O+])([P+](c2ccccc2)(c2ccccc2)c2ccccc2)([P+](c2ccccc2)(c2ccccc2)c2ccccc2)[S]1 [Complex 2, [Ru(7MAC-mtsc)(CO)(PPh3)2]]	16.43 ± 0.09	13.21±0.13	17.14±0.12	14.81 ± 0.19	12.12±0.13	17.95±0.21	15.90 ± 0.16	13.12±0.41	18.65±0.13	2.93 ± 0.07	2.62 ± 0.07	> 40	13.41±0.01	18.45±0.51	13.59 ± 0.15	12.45±0.31	16.28±0.10				
CCNC1=N[N+]2=C(C)c3[c](c4ccc(OC)cc4oc3=O)[Ru-4]2([C]#[O+])([P+](c2ccccc2)(c2ccccc2)c2ccccc2)([P+](c2ccccc2)(c2ccccc2)c2ccccc2)[S]1 [Complex 3, [Ru(7MAC-etsc)(CO)(PPh3)2]]	14.85 ± 0.09	11.11±0.22	17.46±0.41	14.46 ± 0.18	13.23±0.52	17.34±0.45	13.14 ± 0.12	12.04±0.60	17.14±0.12	2.37 ± 0.04	2.53 ± 0.1	> 40	12.53±0.14	17.44±0.27	13.24 ± 0.16	12.29±0.15	17.73±0.21				
COc1ccc2[c]3c(c(=O)oc2c1)C(C)=[N+]1N=C(Nc2ccccc2)[S][Ru-4]31([C]#[O+])([P+](c1ccccc1)(c1ccccc1)c1ccccc1)[P+](c1ccccc1)(c1ccccc1)c1ccccc1 [Complex 4, [Ru(7MAC-ptsc)(CO)(PPh3)2]]	15.89 ± 0.12	12.31±0.48	16.54±0.12	15.66 ± 0.16	12.33±0.53	16.85±0.62	18.25 ± 0.11	12.21±0.42	18.11±0.11	3.05 ± 0.12	3.02 ± 0.05	> 40	12.31±0.38	17.55±0.54	14.65 ± 0.13	12.49±0.14	17.19±0.66				
COc1ccc2cc(C(C)=NNC(N)=S)c(=O)oc2c1 [H2L^1, ((1E)-1-(1-(7-methoxy-2-oxo-2H-chromen-3-yl)ethylidene)thiosemicarbazone)]																		12.38 ± 0.12	16.4 ± 0.31	13.2 ± 0.41	zone of inhibition at 100 µg/mL [2]: 18.1 ± 0.24 mm; zone of inhibition at 50 µg/mL [3]: 13 ± 0.23 mm; zone of inhibition at 100 µg/mL [3]: 17.19 ± 0.16 mm; IC50 ([4]; Homo sapiens, A549, 48 h): 12.6 ± 0.17 µM; IC50 ([5]; Homo sapiens, MCF7, 48 h): 13.1 ± 0.29 µM; IC50 ([6]; Homo sapiens, HaCaT): > 40 µM; zone of inhibition at 50 µg/mL ([7]; 50 µg/ml): 13.2 ± 0.77 mm; zone of inhibition at 100 µg/mL ([7]; 100 µg/ml): 16.5 ± 0.46 mm; zone of inhibition at 50 µg/mL [8]: 11.2 ± 0.14 mm; zone of inhibition at 100 µg/mL [8]: 17 ± 0.91 mm
CNC(=S)NN=C(C)c1cc2ccc(OC)cc2oc1=O [H2L^2, ((1E)-1-(1-(7-methoxy-2-oxo-2H-chromen-3-yl)ethylidene) 4(N)-methylthiosemicarbazone)]																		12.1 ± 0.33	17.3 ± 0.41	12.6 ± 0.37	zone of inhibition at 100 µg/mL [2]: 17.7 ± 0.45 mm; zone of inhibition at 50 µg/mL [3]: 12.1 ± 0.25 mm; zone of inhibition at 100 µg/mL [3]: 17.5 ± 0.28 mm; IC50 ([4]; Homo sapiens, A549, 48 h): 12.1 ± 0.16 µM; IC50 ([5]; Homo sapiens, MCF7, 48 h): 12.1 ± 0.32 µM; IC50 ([6]; Homo sapiens, HaCaT): > 40 µM; zone of inhibition at 50 µg/mL ([7]; 50 µg/ml): 13.43 ± 0.12 mm; zone of inhibition at 100 µg/mL ([7]; 100 µg/ml): 16.2 ± 0.57 mm; zone of inhibition at 50 µg/mL [8]: 13.38 ± 0.12 mm; zone of inhibition at 100 µg/mL [8]: 18.17 ± 0.15 mm
CCNC(=S)NN=C(C)c1cc2ccc(OC)cc2oc1=O [H2L^3, ((1E)-1-(1-(7-methoxy-2-oxo-2H-chromen-3-yl)ethylidene) 4(N)-ethylthiosemicarbazone)]																		11.2 ± 0.15	17.2 ± 0.21	12.5 ± 0.34	zone of inhibition at 100 µg/mL [2]: 16.4 ± 0.23 mm; zone of inhibition at 50 µg/mL [3]: 12.3 ± 0.41 mm; zone of inhibition at 100 µg/mL [3]: 15.6 ± 0.65 mm; IC50 ([4]; Homo sapiens, A549, 48 h): 11.6 ± 0.15 µM; IC50 ([5]; Homo sapiens, MCF7, 48 h): 11.3 ± 0.21 µM; IC50 ([6]; Homo sapiens, HaCaT): > 40 µM; zone of inhibition at 50 µg/mL ([7]; 50 µg/ml): 12.2 ± 0.25 mm; zone of inhibition at 100 µg/mL ([7]; 100 µg/ml): 17.1 ± 0.32 mm; zone of inhibition at 50 µg/mL [8]: 11.3 ± 0.12 mm; zone of inhibition at 100 µg/mL [8]: 18.2 ± 0.22 mm
